# Entries after “also recorded” stand apart in the source; their conditions may differ.
# Columns and labels:
# [1] = Long-term (24-months) stability of crystal forms; format: physicochemical; conditions: for stability of the crystal form (result in words): long-term stability investigation, summary; for Appearance / Content / Crystal Form / Loss on Drying / Related Substances, Most Unknown Impurity / Related Substances, Total Impurities: long-term stability
# Excerpt: The crystals prepared in examples 1, 3 and 6 were selected, and the stability of the crystal forms 1, IIa and IIb was investigated in accordance with the stability research guidelines issued by the National Medical Product Administration. The crystals were packed in pharmaceutical low-density polyethylene bags, and 24 months long-term stability was investigated.
# [2] = Drug concentration in the skin after topical administration to skin for 24 hours; format: in vivo, rat; conditions: topical gel
# Method: The solid powders of Examples 1 and 6, and the hydrogel preparations thereof were taken, and the PK values of rats administered by oral gavage and transdermal application were respectively determined. Male SD rats were divided into groups, 3 rats in each group, and were administered the compounds obtained in Examples 1 and 6 by oral gavage (oral group). administered Example 1 intravenously (intravenous group), and administered the gel preparations prepared from the compounds of Examples 1 and 6 topically to the skin (transdermal group). Animals were fasted overnight before the experiment, and the fasting time ranged from 10 hours before administration to 4 hours after administration. Blood was collected at 0.25, 0.5, 1, 2, 4, 6, 8 and 24 hours after administration in oral group and transdermal group, and at 0.083, 0.25, 0.5, 1, 2, 4, 6, 8 and 24 hours after administration in intravenous group. […] Plasma was extracted by protein precipitation method, and the extract was analyzed by LC/MS/MS. The transdermal group was administered for 24 hours and the skin at the administration site was peeled off after washing off the epidermal drug, and the drug content in the skin was analyzed by LC/MS/MS after homogenization.
# [3] = Pharmacokinetic experiment in male SD rats (oral, intravenous, transdermal); format: in vivo, rat; conditions: oral group (gavage)
# Method: The solid powders of Examples 1 and 6, and the hydrogel preparations thereof were taken, and the PK values of rats administered by oral gavage and transdermal application were respectively determined. Male SD rats were divided into groups, 3 rats in each group, and were administered the compounds obtained in Examples 1 and 6 by oral gavage (oral group). administered Example 1 intravenously (intravenous group), and administered the gel preparations prepared from the compounds of Examples 1 and 6 topically to the skin (transdermal group). Animals were fasted overnight before the experiment, and the fasting time ranged from 10 hours before administration to 4 hours after administration. Blood was collected at 0.25, 0.5, 1, 2, 4, 6, 8 and 24 hours after administration in oral group and transdermal group, and at 0.083, 0.25, 0.5, 1, 2, 4, 6, 8 and 24 hours after administration in intravenous group. After being anesthetized with isoflurane using a small animal anesthesia machine, 0.3 mL of whole blood was collected through the fundus venous plexus and placed in a heparin anticoagulant tube. The blood samples were centrifuged at 4° C. and 4000 rpm for 5 min, and plasma was transferred to a centrifuge tube and placed at −80° C. until analysis. Plasma was extracted by protein precipitation method, and the extract was analyzed by LC/MS/MS. The transdermal group was administered for 24 hours and the skin at the administration site was peeled off after washing off the epidermal drug, and the drug content in the skin was analyzed by LC/MS/MS after homogenization.
# [4] = Transdermal test of gel preparations (transdermal rate); format: in vitro ADME; conditions: gel preparation; receiving medium 5.0% Tween 80, pH 5.5 phosphate
# Excerpt: Take the crystal obtained in Examples 1 or 6 and prepare it into gel preparation (the process for preparing the gel preparation can be: after stirring PEG400, propylene glycol, glycerin, ethanol and the crystal of Example 1 or 6, mix with EDTA aqueous solution, add in the swelled carbomer aqueous solution, adjust pH to be 6 with 10% triethanolamine solution, to obtain the gel). Measure respective transdermal rate (receiving medium 5.0% Tween 80, pH 5.5 phosphate).
# [5] = Stability of crystal form III on standing (NMR); format: physicochemical
# Method: 15 mg of 2-{3-[3-amino-4-(7H-pyrrolo[2,3-d]pyrimidin-4-yl)-1H-pyrazol-1-yl]-1-(isopropylsulfonyl)azetidin-3-yl}acetonitrile was added to 3 mL of dioxane, then heated to 40° C. to dissolve and the obtained solution is clear. After filtration, the solution was volatilized and crystallized at 40° C. to obtain crystal form III.
smiles,measurement,setting,value
"CC(C)S(=O)(=O)N1CC(CC#N)(n2cc(-c3ncnc4[nH]ccc34)c(N)n2)C1 [Example 3, 2-{3-[3-amino-4-(7H-pyrrolo[2,3-d]pyrimidin-4-yl)-1H-pyrazol-1-yl]-1-(isopropylsulfonyl)azetidin-3-yl}acetonitrile crystal form IIa]",stability of the crystal form (result in words),[1],gradually absorbed water during standing and was transformed into crystal form IIb
same,Appearance,[1]; 0 month,Off-white powder
same,Content,[1]; 0 month,99.8%
same,Crystal Form,[1]; 0 month,IIa
same,Loss on Drying,[1]; 0 month,0.06%
same,"Related Substances, Most Unknown Impurity",[1]; 0 month,0.06%
same,"Related Substances, Total Impurities",[1]; 0 month,0.28%
same,Appearance,[1]; 3 months,Off-white powder
same,Content,[1]; 3 months,97.6%
same,Crystal Form,[1]; 3 months,IIb
same,Loss on Drying,[1]; 3 months,0.18%
same,"Related Substances, Most Unknown Impurity",[1]; 3 months,0.08%
same,"Related Substances, Total Impurities",[1]; 3 months,0.28%
same,Appearance,[1]; 6 months,Off-white powder
same,Content,[1]; 6 months,97.8%
same,Crystal Form,[1]; 6 months,IIb
same,Loss on Drying,[1]; 6 months,0.19%
same,"Related Substances, Most Unknown Impurity",[1]; 6 months,0.11%
same,"Related Substances, Total Impurities",[1]; 6 months,0.27%
same,Appearance,[1]; 9 months,Off-white powder
same,Content,[1]; 9 months,97.9%
same,Crystal Form,[1]; 9 months,IIb
same,Loss on Drying,[1]; 9 months,0.24%
same,"Related Substances, Most Unknown Impurity",[1]; 9 months,0.06%
same,"Related Substances, Total Impurities",[1]; 9 months,0.24%
same,Appearance,[1]; 12 months,Off-white powder
same,Content,[1]; 12 months,97.8%
same,Crystal Form,[1]; 12 months,IIb
same,Loss on Drying,[1]; 12 months,0.20%
same,"Related Substances, Most Unknown Impurity",[1]; 12 months,0.09%
same,"Related Substances, Total Impurities",[1]; 12 months,0.22%
same,Appearance,[1]; 18 months,Off-white powder
same,Content,[1]; 18 months,98.0%
same,Crystal Form,[1]; 18 months,IIb
same,Loss on Drying,[1]; 18 months,0.16%
same,"Related Substances, Most Unknown Impurity",[1]; 18 months,0.07%
same,"Related Substances, Total Impurities",[1]; 18 months,0.26%
same,Appearance,[1]; 24 months,Off-white powder
same,Content,[1]; 24 months,97.8%
same,Crystal Form,[1]; 24 months,IIb
same,Loss on Drying,[1]; 24 months,0.25%
same,"Related Substances, Most Unknown Impurity",[1]; 24 months,0.08%
same,"Related Substances, Total Impurities",[1]; 24 months,0.29%
"CC(C)S(=O)(=O)N1CC(CC#N)(n2cc(-c3ncnc4[nH]ccc34)c(N)n2)C1 [Example 6, 2-{3-[3-amino-4-(7H-pyrrolo[2,3-d]pyrimidin-4-yl)-1H-pyrazol-1-yl]-1-(isopropylsulfonyl)azetidin-3-yl}acetonitrile crystal form IIb]",drug concentration retained in animal skin relative to crystal form I,[2],up to 7 times
same,AUC(0-inf),[3],537 ng·h/mL
same,Cmax,[3],114 ng/mL
same,F,[3],22%
same,T1/2,[3],3.40 h
same,Tmax,[3],3.17 h
same,stability of the crystal form (result in words),[1],better chemical stability; also recorded: good stability
same,Appearance,[1]; 0 month,Off-white
same,Content,[1]; 0 month,99.7%
same,Crystal Form,[1]; 0 month,IIb
same,Loss on Drying,[1]; 0 month,0.36%
same,"Related Substances, Most Unknown Impurity",[1]; 0 month,0.07%
same,"Related Substances, Total Impurities",[1]; 0 month,0.38%
same,Appearance,[1]; 3 months,Off-white
same,Content,[1]; 3 months,99.7%
same,Crystal Form,[1]; 3 months,IIb
same,Loss on Drying,[1]; 3 months,0.36%
same,"Related Substances, Most Unknown Impurity",[1]; 3 months,0.08%
same,"Related Substances, Total Impurities",[1]; 3 months,0.38%
same,Appearance,[1]; 6 months,Off-white
same,Content,[1]; 6 months,99.6%
same,Crystal Form,[1]; 6 months,IIb
same,Loss on Drying,[1]; 6 months,0.39%
same,"Related Substances, Most Unknown Impurity",[1]; 6 months,0.08%
same,"Related Substances, Total Impurities",[1]; 6 months,0.37%
same,Appearance,[1]; 9 months,Off-white
same,Content,[1]; 9 months,99.5%
same,Crystal Form,[1]; 9 months,IIb
same,Loss on Drying,[1]; 9 months,0.34%
same,"Related Substances, Most Unknown Impurity",[1]; 9 months,0.08%
same,"Related Substances, Total Impurities",[1]; 9 months,0.38%
same,Appearance,[1]; 12 months,Off-white
same,Content,[1]; 12 months,99.6%
same,Crystal Form,[1]; 12 months,IIb
same,Loss on Drying,[1]; 12 months,0.30%
same,"Related Substances, Most Unknown Impurity",[1]; 12 months,0.07%
same,"Related Substances, Total Impurities",[1]; 12 months,0.37%
same,Appearance,[1]; 18 months,Off-white
same,Content,[1]; 18 months,99.6%
same,Crystal Form,[1]; 18 months,IIb
same,Loss on Drying,[1]; 18 months,0.31%
same,"Related Substances, Most Unknown Impurity",[1]; 18 months,0.07%
same,"Related Substances, Total Impurities",[1]; 18 months,0.39%
same,Appearance,[1]; 24 months,Off-white
same,Content,[1]; 24 months,99.7%
same,Crystal Form,[1]; 24 months,IIb
same,Loss on Drying,[1]; 24 months,0.32%
same,"Related Substances, Most Unknown Impurity",[1]; 24 months,0.08%
same,"Related Substances, Total Impurities",[1]; 24 months,0.39%
same,transdermal performance / transdermal absorption (result in words),[4],inferior to crystal form I in transdermal absorption
"CC(C)S(=O)(=O)N1CC(CC#N)(n2cc(-c3ncnc4[nH]ccc34)c(N)n2)C1 [Example 8, 2-{3-[3-amino-4-(7H-pyrrolo[2,3-d]pyrimidin-4-yl)-1H-pyrazol-1-yl]-1-(isopropylsulfonyl)azetidin-3-yl}acetonitrile crystal form III]",crystallinity and stability (result in words),[5],poor crystallinity and stability
same,impurities generated after standing (nuclear magnetic resonance),[5]; after standing,about 10%
